Results on 24 compounds are retold here after patent publication US20110257168A1, “DERIVATIVES OF OXABISPIDINE AS NEURONAL NICOTINIC ACETYLCHOLINE RECEPTOR LIGANDS” (Targacept, Inc., priority 2008, published 2011).

The target of assay [1] is human α4β2 (Homo sapiens, UniProt P17787+P43681). The assay can be described thus: Competition binding to human α4β2 receptors in membrane preparations. Here is the method:
(§1) SH-EP1/human α4β2 (Eaton et al., 2003), SH-EP1/human α4β4 (Gentry et al., 2003), SH-EP1/α6β3β4α5 (Grinevich et al., 2005), TE671/RD and SH-SY5Y cell lines (obtained from Dr. Ron Lukas, Barrow Neurological Institute) were maintained in proliferative growth phase in Dulbecco's modified Eagle's medium (Gibco/BRL) with 10% horse serum (Gibco BRL), 5% fetal bovine serum (HyClone, Logan Utah), 1 mM sodium pyruvate, 4 mM L-glutamine. For maintenance of stable transfectants, the α4β2 and α4β4 cell media was supplemented with 0.25 mg/mL zeocin and 0.13 mg/mL hygromycin B. Selection was maintained for the α6β3β4α5 cells with 0.25 mg/mL of zeocin, 0.13 mg/mL of hygromycin B, 0.4 mg/mL of geneticin, and 0.2 mg/mL of blasticidin. HEK/human α7/RIC3 cells (obtained from J. Lindstrom, U. Pennsylvania) were maintained in proliferative growth phase in Dulbecco's modified Eagle's medium (Gibco/BRL) with 10% fetal bovine serum (HyClone, Logan Utah), 1 mM sodium pyruvate, 4 mM L-glutamine, 0.4 mg/mL geneticin; 0.2 mg/ml hygromycin B.
(§2) Preparation of membranes from rat tissues. Rat cortices were obtained from Analytical Biological Services, Incorporated (ABS, Wilmington, Del.). Tissues were dissected from female Sprague-Dawley rats, frozen and shipped on dry ice. Tissues were stored at −20° C. until needed for membrane preparation. Cortices from 10 rats were pooled and homogenized by Polytron (Kinematica GmbH, Switzerland) in 10 volumes (weight:volume) of ice-cold preparative buffer (KCl, 11 mM; KH2PO4, 6 mM; NaCl 137 mM; Na2HPO4 8 mM; HEPES (free acid), 20 mM; iodoacetamide, 5 mM; EDTA, 1.5 mM; 0.1 mM PMSF pH 7.4). The resulting homogenate was centrifuged at 40,000 g for 20 minutes at 4° C. and the resulting pellet was resuspended in 20 volumes of ice-cold water. After 60-minute incubation at 4° C., a new pellet was collected by centrifugation at 40,000 g for 20 minutes at 4° C. The final pellet was resuspended in preparative buffer and stored at −20° C. On the day of the assay, tissue was thawed, centrifuged at 40,000 g for 20 minutes and then resuspended in PBS (Dulbecco's Phosphate Buffered Saline, Life Technologies, pH 7.4) to a final concentration of 2-3 mg protein/mL. Protein concentrations were determined using the Pierce BCA Protein Assay kit (Pierce Biotechnology, Rockford, Ill.), with bovine serum albumin as the standard. Preparation of membranes from clonal cell lines. Cells were harvested in ice-cold PBS, pH 7.4, then homogenized with a polytron (Brinkmann Instruments, Westbury, N.Y.). Homogenates were centrifuged at 40,000 g for 20 minutes (4° C.). The pellet was resuspended in PBS and protein concentration determined using the Pierce BCA Protein Assay kit (Pierce Biotechnology, Rockford, Ill.).
(§3) Competition binding to receptors in membrane preparations. Binding to nicotinic receptors was assayed on membranes using standard methods adapted from published procedures (Lippiello and Fernandes, 1986; Davies et al., 1999). In brief, membranes were reconstituted from frozen stocks (approximately 0.2 mg protein) and incubated for 2 h on ice in […] assay buffer (PBS) in the presence of competitor compound (0.001 nM to […]) and radioligand. [^3H]-nicotine (L-(−)-[N-methyl-3H]-nicotine, 69.5 Ci/mmol, Perkin-Elmer Life Sciences) was used for human α4β2 binding studies. [^3H]-epibatidine (52 Ci/mmol, Perkin-Elmer Life Sciences) was used for binding studies at the other receptor subtypes. Incubation was terminated by rapid filtration on a multimanifold tissue harvester (Brandel, Gaithersburg, Md.) using GF/B filters presoaked in 0.33% polyethyleneimine (w/v) to reduce non-specific binding. Filters were washed 3 times and the radioactivity retained was determined by liquid scintillation counting.
(§4) Binding data analysis. Binding data were expressed as percent total control binding. Replicates for each point were averaged and plotted against the log of drug concentration. […]

Assay [2] has as its target T1, Human α7 (Homo sapiens, UniProt P36544).
T1 construct: host or cells: HEK cells co-expressing RIC3
The assay can be described thus: Competition binding to human α7 receptors in membrane preparations. The method, then:
as §1, §2, §3, §4

For assay [3], the target named is T2, Rat α4β2 (Rattus norvegicus, UniProt P09483+P12390).
T2 construct: Preparation of membranes from rat tissues; Rat cortices were obtained from Analytical Biological Services; tissue Analytical Biological Services, Incorporated (ABS, Wilmington, Del.); host or cells: rat cortex membranes (female Sprague-Dawley)
The assay can be described thus: Competition binding to rat α4β2 receptors in membrane preparations. The method, then:
as §2, §3
(§5) Binding data analysis. Binding data were expressed as percent total control binding. Replicates for each point were averaged and plotted against the log of drug concentration. The IC50 (concentration of the compound that produces 50% inhibition of binding) was determined by least squares non-linear regression using GraphPad Prism software (GraphPAD, San Diego, Calif.). Ki was calculated using the Cheng-Prusoff equation (Cheng and Prusoff, 1973).

Assay [4] concerns the target T3, Rat α7 (Rattus norvegicus, UniProt Q05941).
T3 construct: Preparation of membranes from rat tissues; Rat cortices were obtained from Analytical Biological Services; tissue Analytical Biological Services, Incorporated (ABS, Wilmington, Del.); host or cells: rat brain membranes (only cortex is described)
The assay can be described thus: Competition binding to rat α7 receptors in membrane preparations. To be noted: membranes, [3H]-epibatidine competition; Ki by Cheng-Prusoff; read-out: Rat α7 Ki. Here is the method:
as §2, §3, §5

Where [5] appears, read: membranes, [3H]-nicotine competition, Ki by Cheng-Prusoff, read-out: human α4β2 Ki.
[6] abbreviates: membranes, [3H]-epibatidine competition, Ki by Cheng-Prusoff, read-out: Human α7 Ki.
Setting [7] is: membranes, [3H]-epibatidine competition, Ki by Cheng-Prusoff, read-out: Rat α4β2 Ki.

pKi: −log10 of the molar value. Like-named read-outs stand apart in the source and are kept apart here.

Broadly, the pKi is −log10 of the Ki, conventionally taken in molar units. Take `FCCOc1cc(N2CC3CNCC(C2)O3)cnc1Cl` [3-(5-(2-fluoroethoxy)-6-chloropyridin-3-yl)-9-oxa-3,7-diazabicyclo[3.3.1]nonane]: the pKi in assay [1] (setting [5]) is 9.68; in assay [2] (setting [6]) it was 5.80; in assay [3] it was 9.39.

Regarding `FCCCOc1cc(N2CC3CNCC(C2)O3)cnc1Cl` [3-(5-(3-fluoropropoxy)-6-chloropyridin-3-yl)-9-oxa-3,7-diazabicyclo[3.3.1]nonane], the figures for the pKi in assay [1] (setting [5]), in assay [2] (setting [6]) and in assay [3] were 9.42, 5.72 and 9.14, respectively.

As for `FCCCCOc1cc(N2CC3CNCC(C2)O3)cnc1Cl` [3-(5-(4-fluorobutoxy)-6-chloropyridin-3-yl)-9-oxa-3,7-diazabicyclo[3.3.1]nonane], the figures for the pKi in assay [1] (setting [5]), in assay [2] (setting [6]) and in assay [3] were 9.52, 5.82 and 9.46, respectively.

In the case of `c1ncc(N2CC3CNCC(C2)O3)cc1OCC1CC1` [3-(5-(cyclopropylmethoxy)pyridin-3-yl)-9-oxa-3,7-diazabicyclo[3.3.1]nonane], the pKi in assay [1] (setting [5]) was 9.30; in assay [3] it was 8.54; in assay [4] it was 5.03.

On to `FC(F)Oc1cncc(N2CC3CNCC(C2)O3)c1` [3-(5-(difluoromethoxy)pyridin-3-yl)-9-oxa-3,7-diazabicyclo[3.3.1]nonane], for which the pKi in assay [1] is 9.38; in assay [2] (setting [6]) it was 5.80; in assay [3] (setting [7]), 9.44.

For the compound `N#Cc1cc(N2CC3CNCC(C2)O3)cnc1F` [3-(5-cyano-6-fluoropyridin-3-yl)-9-oxa-3,7-diazabicyclo[3.3.1]nonane], the pKi is 7.72 in assay [1] (setting [5]), 4.80 in assay [2] (setting [6]) and 7.62 in assay [3].

In the case of `N#Cc1cncc(N2CC3CNCC(C2)O3)c1` [3-(5-cyanopyridin-3-yl)-9-oxa-3,7-diazabicyclo[3.3.1]nonane], the pKi in assay [1] (setting [5]) is 8.57; in assay [2] (setting [6]) it was 5.70; in assay [3] it was 7.96.

With `Clc1ncc(N2CC3CNCC(C2)O3)cc1C1CC1` [3-(5-cyclopropyl-6-chloropyridin-3-yl)-9-oxa-3,7-diazabicyclo[3.3.1]nonane], the values for the pKi in assay [1] (setting [5]), in assay [2] and in assay [3] were 9.74, 7.06 and 7.85, respectively.

For `c1ncc(N2CC3CNCC(C2)O3)cc1C1CC1` [3-(5-cyclopropylpyridin-3-yl)-9-oxa-3,7-diazabicyclo[3.3.1]nonane], the values for the pKi in assay [1] (setting [5]), in assay [2] (setting [6]) and in assay [3] were 8.70, 5.89 and 8.19, respectively.

Take `CN1CC2CN(c3cncc(F)c3)CC(C1)O2` [3-(5-fluoropyridin-3-yl)-7-methyl-9-oxa-3,7-diazabicyclo[3.3.1]nonane]: the pKi in assay [1] (setting [5]) is 7.48; in assay [2] (setting [6]), 5.68; in assay [3] (setting [7]), 6.55.

Consider `CC(C)Oc1cncc(N2CC3CNCC(C2)O3)c1` [3-(5-isopropoxypyridin-3-yl)-9-oxa-3,7-diazabicyclo[3.3.1]nonane], for which the results for the pKi in assay [1] (setting [5]), in assay [3] and in assay [4] were 9.05, 8.89 and 4.21, respectively.

For `COc1cc(N2CC3CNCC(C2)O3)cnc1F` [3-(5-methoxy-6-fluoropyridin-3-yl)-9-oxa-3,7-diazabicyclo[3.3.1]nonane], the pKi in assay [1] was 9.37; in assay [2] (setting [6]) it was 6.00; in assay [3] (setting [7]), 8.96.

With `Cc1cncc(N2CC3CN(C)CC(C2)O3)c1` [3-(5-methylpyridin-3-yl)-7-methyl-9-oxa-3,7-diazabicyclo[3.3.1]nonane], the pKi in assay [1] (setting [5]) was 7.60; in assay [2] (setting [6]), 5.06; in assay [3] (setting [7]) it was 6.43.

`FC(F)(F)c1cncc(N2CC3CNCC(C2)O3)c1` [3-(5-trifluoromethylpyridin-3-yl)-9-oxa-3,7-diazabicyclo[3.3.1]nonane]: the pKi in assay [1] (setting [5]) is 8.42; in assay [3], 8.01; in assay [4], 4.77.

On to `FC(F)Oc1cc(N2CC3CNCC(C2)O3)cnc1Cl` [3-(6-chloro-5-(difluoromethoxy)pyridin-3-yl)-9-oxa-3,7-diazabicyclo[3.3.1]nonane], for which the pKi was 9.80 in assay [1] (setting [5]), 6.25 in assay [2] (setting [6]) and 10.10 in assay [3].

Regarding `Clc1ccc(N2CC3CNCC(C2)O3)nn1` [3-(6-chloropyridazin-3-yl)-9-oxa-3,7-diazabicyclo[3.3.1]nonane], the values for the pKi in assay [1], in assay [2] (setting [6]) and in assay [3] (setting [7]) were 7.20, 5.89 and 7.02, respectively.

Regarding `N#Cc1ncc(N2CC3CNCC(C2)O3)cc1OC(F)F` [3-(6-cyano-5-(difluoromethoxy)pyridin-3-yl)-9-oxa-3,7-diazabicyclo[3.3.1]nonane], the pKi in assay [1] (setting [5]) is 9.59; in assay [2] (setting [6]), 6.03; in assay [3] it was 9.92.

With `N#Cc1ccc(N2CC3CNCC(C2)O3)cn1` [3-(6-cyanopyridin-3-yl)-9-oxa-3,7-diazabicyclo[3.3.1]nonane], the pKi was 7.38 in assay [1] (setting [5]), 5.09 in assay [2] (setting [6]) and 6.54 in assay [3] (setting [7]).

As to `Cc1ccc(N2CC3CNCC(C2)O3)cn1` [3-(6-methylpyridin-3-yl)-9-oxa-3,7-diazabicydo[3.3.1]nonane], the negative-log Ki (pKi) in assay [1] was 8.31; in assay [2] (setting [6]), 6.22; in assay [3] (setting [7]) it was 7.52.

As to `FC(F)(F)c1ccc(N2CC3CNCC(C2)O3)cn1` [3-(6-trifluoromethylpyridin-3-yl)-9-oxa-3,7-diazabicyclo[3.3.1]nonane], the negative-log Ki (pKi) in assay [1] is 8.17; in assay [2] (setting [6]) it was 5.72; in assay [3] (setting [7]), 7.32.

As for `c1cc2cc(N3CC4CNCC(C3)O4)cnc2o1` [3-(furo[2,3-b]pyridin-5-yl)-9-oxa-3,7-diazabicyclo[3.3.1]nonane], the pKi is 7.32 in assay [1] (setting [5]), 5.18 in assay [2] (setting [6]) and 7.64 in assay [3].

Turning to `c1cc2ncc(N3CC4CNCC(C3)O4)cc2o1` [3-(furo[3,2-b]pyridin-6-yl)-9-oxa-3,7-diazabicyclo[3.3.1]nonane], the values for the pKi in assay [1] (setting [5]), in assay [2] (setting [6]) and in assay [3] were 7.30, 5.24 and 7.04, respectively.

Turning to `c1cnc(N2CC3CNCC(C2)O3)cn1` [3-(pyrazin-2-yl)-9-oxa-3,7-diazabicyclo[3.3.1]nonane], the pKi in assay [1] (setting [5]) is 7.43; in assay [2] (setting [6]), 5.66; in assay [3] (setting [7]) it was 6.60.

For `CN1CC2CN(c3cccnc3)CC(C1)O2` [3-methyl-7-(pyridin-3-yl)-9-oxa-3,7-diazabicyclo[3.3.1]nonane], the values for the pKi in assay [1] (setting [5]), in assay [2] (setting [6]) and in assay [3] (setting [7]) were 7.02, 5.23 and 6.74, respectively.
